In ChEMBL document CHEMBL1201862, “PubChem BioAssay data set” (2004):
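Five concentrations, 48 hours, 96-well plates. GI50 is the concentration that inhibits growth by half.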 Calls of active or inactive are those of the source. No stated cut-off is given here; in the data, active = GI50 up to about 1.1 µM and inactive = higher.

Legend:
Assay in all cases: inhibition of tumour cell growth, NCI panel, 48 h
[1] = tested on: OVCAR-8
[2] = tested on: ACHN
[3] = tested on: SNB-19
[4] = tested on: CCRF-CEM
[5] = tested on: A549
[6] = tested on: NCI-H522
[7] = tested on: CAKI-1
[8] = tested on: MOLT-4
[9] = tested on: MCF7
[10] = tested on: MDA-N
[11] = tested on: IGROV-1
[12] = tested on: COLO 205
[13] = tested on: HOP-92
[14] = tested on: SK-MEL-2
[15] = tested on: SK-MEL-28
[16] = tested on: SF-539
[17] = tested on: PC-3
[18] = tested on: OVCAR-5
[19] = tested on: UACC-62
[20] = tested on: OVCAR-3

Measured: GI50

N#CC1C=Cc2ccccc2N1C(=O)Oc1ccccc1 (stereo not given)
inactive: [1] 48.8 µM | [2] 50.2 µM | [3] 74.8 µM | [4] 19.9 µM | [5] 49.2 µM | [6] 22 µM | [7] 84.3 µM | [8] 28.2 µM | [9] 41.8 µM | [10] 35.4 µM | [11] 68.2 µM | [12] 58.7 µM | [13] 58.6 µM | [14] 23.1 µM | [15] > 100 µM | [16] 69.8 µM | [17] 52.1 µM | [18] > 100 µM | [19] 52.7 µM

Nc1nc(N)c2nc(CNc3ccc(C(=O)O)cc3)[nH]c2n1
inactive: [1] > 100 µM | [2] > 100 µM | [3] > 100 µM | [4] > 100 µM | [5] > 100 µM | [20] > 100 µM | [6] > 100 µM | [7] > 100 µM | [8] > 100 µM | [9] > 100 µM | [10] > 100 µM | [11] > 100 µM | [12] > 100 µM | [13] > 100 µM | [14] > 100 µM | [15] > 100 µM | [16] > 100 µM | [17] > 100 µM | [18] > 100 µM | [19] > 100 µM

COc1cc(C(=O)OC2CC34CCNC35CC(OC5(OC)C2O)c2cc3c(cc24)OCO3)ccc1O (stereo not given)
inactive: [1] > 100 µM | [2] > 100 µM | [3] > 100 µM | [4] > 100 µM | [5] > 100 µM | [20] > 100 µM | [6] > 100 µM | [7] > 100 µM | [8] > 100 µM | [9] > 100 µM | [10] > 100 µM | [11] > 100 µM | [12] > 100 µM | [13] > 100 µM | [14] > 100 µM | [15] > 100 µM | [16] > 100 µM | [17] > 100 µM | [18] > 100 µM | [19] > 100 µM

O=C1c2cscc2C(=O)c2c(OCc3ccccc3)ccc(OCc3ccccc3)c21
inactive: [1] > 100 µM | [2] > 100 µM | [3] > 100 µM | [4] 53.8 µM | [5] > 100 µM | [20] > 100 µM | [6] > 100 µM | [7] > 100 µM | [8] > 100 µM | [9] > 100 µM | [10] > 100 µM | [11] 83.2 µM | [12] > 100 µM | [13] > 100 µM | [15] > 100 µM | [16] > 100 µM | [17] 78.5 µM | [18] > 100 µM | [19] > 100 µM

Nc1ccc2nc3ccc(N)cc3[n+](-c3ccccc3)c2c1
inactive: [2] 72.3 µM | [3] 40.4 µM | [4] > 100 µM | [5] 45.4 µM | [20] 6.4 µM | [6] 11.6 µM | [7] > 100 µM | [9] 5.07 µM | [10] 49.8 µM | [11] 37.3 µM | [12] 4.55 µM | [13] 67 µM | [14] 34.5 µM | [15] > 100 µM | [16] 60.7 µM | [17] 29.3 µM | [18] 29.9 µM | [19] 64.7 µM

CC1=CC=CC(C)(C)CC1(O[Si](C)(C)C)C(F)(F)F (stereo not given)
inactive: [1] > 100 µM | [2] > 100 µM | [3] > 100 µM | [4] > 100 µM | [5] 64.3 µM | [20] > 100 µM | [6] 43.3 µM | [7] > 100 µM | [9] 92.7 µM | [10] > 100 µM | [11] 26.6 µM | [12] 72.3 µM | [13] > 100 µM | [14] > 100 µM | [15] > 100 µM | [16] > 100 µM | [17] > 100 µM | [18] > 100 µM | [19] > 100 µM

CC(C)(C)c1ccc(CN2CCN(C(c3ccccc3)c3ccc(Cl)cc3)CC2)cc1 (stereo not given)
inactive: [1] > 100 µM | [2] 68.5 µM | [3] > 100 µM | [5] 32.5 µM | [20] 58.7 µM | [6] 23.4 µM | [7] > 100 µM | [8] 44.6 µM | [9] 40.6 µM | [10] 49.4 µM | [11] > 100 µM | [12] 38.8 µM | [13] > 100 µM | [14] 31 µM | [15] 65.5 µM | [16] 30.3 µM | [17] 57.3 µM | [18] 60.1 µM | [19] > 100 µM

COc1cc2c[n+](C)c3c(c2cc1OC)Cc1cc2c(cc1-3)OCO2
inactive: [1] > 100 µM | [3] > 100 µM | [4] 71.4 µM | [5] > 100 µM | [20] > 100 µM | [6] 52.4 µM | [7] > 100 µM | [8] 48.9 µM | [9] > 100 µM | [10] > 100 µM | [11] > 100 µM | [12] > 100 µM | [13] > 100 µM | [14] > 100 µM | [15] > 100 µM | [16] > 100 µM | [17] > 100 µM | [18] > 100 µM | [19] > 100 µM

N#CCC(=O)Nn1c(CC#N)nnc1Cc1ccccc1
inactive: [1] > 100 µM | [2] > 100 µM | [3] > 100 µM | [5] > 100 µM | [20] > 100 µM | [6] > 100 µM | [7] > 100 µM | [8] > 100 µM | [9] > 100 µM | [10] > 100 µM | [11] > 100 µM | [13] > 100 µM | [14] > 100 µM | [15] > 100 µM | [16] > 100 µM | [17] > 100 µM | [18] > 100 µM | [19] > 100 µM

O=C(O)CN(CC(=O)O)Cc1ccn(-c2cccc(-n3ccc(CN(CC(=O)O)CC(=O)O)n3)n2)n1
inactive: [1] > 100 µM | [2] > 100 µM | [3] > 100 µM | [5] 17.4 µM | [20] > 100 µM | [6] > 100 µM | [7] > 100 µM | [8] > 100 µM | [9] > 100 µM | [10] > 100 µM | [11] > 100 µM | [12] > 100 µM | [13] > 100 µM | [14] > 100 µM | [15] > 100 µM | [16] > 100 µM | [17] > 100 µM | [18] > 100 µM | [19] > 100 µM
